This assay deals with challenge pool of 7 bacteria: P. aeruginosa, E. aerogenes, E. coli, K. pneumonia, S. aureus, B. subtilis and S. enterica. In words: ASTM D 2574 (modified) on pigment dispersions, split samples aged at room temperature / 3 weeks 60° C. / 6 weeks 60° C. The assay is classed as cell-based. On the procedure: ASTM D 2574: Standard Test for Resistance of Emulsion Paints in the Container to Attack by Microorganisms.
The test is conducted in accordance with the ASTM standard, except for the following modifications noted for the preparation of the inoculum and test procedure.
Preparation of Inoculum: There are 7 bacteria used in forming the challenge pool, they include: P. aeruginosa (ATCC #10145), E. aerogenes (ATCC #13048), E. coli (ATCC #10536), K. pneumonia (ATCC #10031), S. aureus (ATCC #6538), B. subtilis (ATCC #6051) and S. enterica (ATCC #13312). Bacterial cultures are prepared 24 hours before the test is scheduled to start by selecting one colony from a plate with a […], inoculating loop, adding it to 10 mL of sterile tryptic soy broth tubes and placing it on the shaking incubator. A 1 mL of each of the seven organisms is combined into a pool in a conical tube. A 1 mL of the created pool is then added to a 9 mL of sterile tryptic soy broth in a conical tube to get an inoculum concentration of ˜10^8 CFU/mL.
Test Procedure: A 1:100 dilution of the inoculum is added into each sample (ex. […], into 40 mL of sample) which provides a ˜10^6 CFU/mL challenge. The samples are then placed into 35° C. incubator for 24 hours to grow new organisms before each inoculation. The samples are inoculated on Days: 0, 2, 7 and 14. The samples are put back into incubator after each inoculation. […]

Consider bismuth aluminate, for which, for the setting “Table 4”, the “effectiveness compared with isothiazolone antimicrobial agent” value is “at least as effective as the isothiazolone antimicrobial agent”. In addition, the preventing microbial growth result (initial results) is listed as “effective in preventing microbial growth”.

Source of the values: US11634594B2, “Antimicrobial agent for coatings and finishes” (SWIMC LLC, priority 2016, dated 2023).
